This is an account of results in US20250057860A1, “READY-TO-DILUTE FORMULATION” (priority 2021, published 2025).

One may read the Solubility as the concentration that dissolves in the medium under given conditions.

Where only a bound is given, the exact number is not on record here.

The nature of data set [1]: Initial screening: effect of excipients on remdesivir solubility. It is filed as physicochemical.
Data set [2] is described as follows: Solubility of remdesivir in water in the presence of surfactants. It is filed as physicochemical. The procedure:
The effect of various surfactants on the solubility of remdesivir in water was also tested.

For data set [3] the following is noted: cited from earlier work.

For the substance remdesivir, the Solubility in data set [1] (in Benzyl Alcohol) is given as not below 56 mg/mL; in data set [1] (in Ethanol), not below 21 mg/mL; in data set [1] (in N-methyl pyrrolidone) it was more than 100 mg/mL; in data set [1] (in N-methyl-2-pyrrolidone (NMP)), not below 112 mg/mL; in data set [1] (in NMP + Ethanol), not below 226 mg/mL; in data set [1] (in PEG 300), not below 39 mg/mL. For the same substance, the Solubility in data set [1] (in PEG 400) is recorded as not below 16 mg/mL; in data set [1] (in PEG 400 + Glycerol (3:5)), 0.011 mg/mL; in data set [1] (in PEG 400 + Glycerol (3:10)), 0.0008 mg/mL; in data set [1] (in PEG 600), not below 6.2 mg/mL; in data set [1] (in PEG 1000), not below 6.3 mg/mL; in data set [1] (in Peppermint Oil), 15.9 mg/mL. In addition, the Solubility is not below 66 mg/mL in data set [1] (in Plasdone (PVP) + PEG 300); not below 29 mg/mL in data set [1] (in Propylene Glycol); not below 34 mg/mL in data set [1] (in Soluplus + Ethanol + Water); 0.006 mg/mL in data set [1] (in Span 20); 0.3 mg/mL in data set [1] (in Span 80); “over 50 mg/ml” in data set [1] (in low molecular weight polyethylene glycols (PEG 300 and 400) in the presence of low molecular weight PVP). In addition, the “Remdesivir Solubility” value was found to be 0.020 mg/mL in data set [2] (water with Kolliphor EL (Polyoxyl 35 Castor Oil; Cremophor) 0.10 % w/w), 0.006 mg/mL in data set [2] (water with Poloxamer P407 0.07 % w/w), 0.016 mg/mL in data set [2] (water with TWEEN 20 (Polysorbate 20) 0.16 % w/w) and 0.033 mg/mL in data set [2] (water with TWEEN 80 (Polysorbate 80) 0.30 % w/w). Further, the “solubility in water (in words)” value in data set [3] was “insoluble”.
